For experiment [1], the system named is B16V mouse melanoma cells. Nature of the experiment: Depigmentation effect on melanoma cell cultures. Type of experiment: cell-based. The settings on record: 0.6 mM tyrosine and 10 nM α-MSH, 96 h, read-out: IC50, inhibition of pigmentation. How it is done: B16V mouse melanoma cells are disseminated in a 96-well micro-titre plate in a concentration of 7.5 x 10^3 cells/well. After cultivation for 24 h at 37°C and 5% CO2 in RPMI medium, enriched with 10% foetal calf serum, various concentrations of the test substances and 0.6 mM tyrosine and 10 nM α-MSH (α-melanocyte stimulating hormone) are added and incubated for a further 96 h. The maximum concentration of the test substances used corresponds to 0.1 times the value of the IC20 value of the cytotoxicity assay. Only tyrosine and α-MSH are added to the controls. After incubation, sodium hydroxide solution (final concentrations: 1 M) is added to the culture medium and the absorption (A) is measured after 3 h at 400 nm.
From the inhibition of pigmentation (%) in a series of dilutions of test compounds, the IC50 for each test compound is calculated. This is the concentration of a test compound at which pigmentation is inhibited by 50%.

The subject of a further experiment is Heme oxygenase-1. The experiment in a line: Heme oxygenase-1 expression (in vitro), Western blot in NHDF cells. The experiment is classed as cell-based, human. Particulars: 24 h. The procedure:
NHDF (normal human dermal fibroblasts) cells were disseminated in a 6-well plate. After cultivation in fully enriched medium (DMEM, 10% FCS) for 48 h, the serum content was reduced to 0.1% to synchronize the cell cycle. Various concentrations of the test substances, the negative control (untreated cells) and tert.- butylhydrochinon as positive control, are added and incubated for a further 24 h. After cell lysis, the protein amount was determined using the Biorad BCA assay. All samples were adjusted to the same protein level before application on a fast Criterion Gel (Biorad) to perform electrophoresis for 20 minutes at 300 V. Thereafter the proteins were transferred to a PVDF membrane on a semi-dry blotter (30 minutes, 25 V). The blotted membrane is blocked for 4 hours in a 5% milk powder solution in TBST at 4°C. After washing, the membrane is incubated with the first antibody solution HO-1 from abcam (1:500 in 1% milk powder in TBST) over night. After this, washing is repeated and the membrane has to be incubated for 1 h in the second antibody solution (goat anti mouse coupled to HRP; 1:800 in 1% milk powder). […] The resulting band pattern is detected with a chemiluminescence sensitive camera system (Vilber Loumat). The quantification was done by densitometry. The up-regulation is calculated relative to control.

The subject of a further experiment is SIRT1. The experiment in a line: SIRT1 assay (in vitro), SIRT1 expression by immunofluorescence in NHDF cells. The experiment is classed as cell-based, human. Particulars: 10 µM, 48 h, mean values of at least 2 independent experiments. The procedure: NHDF cells (normal human dermal fibroblasts) were seeded in 96-well plates. After 24 h cultivation at 37 °C and 5% CO2 in DMEM (Dulbecco's Modified Eagle Medium), cells were treated with test substances for another 48 h. After washing the cells with PBS (phosphate buffered saline), the cells were fixed with paraformaldehyde and permeabilized. Then they were washed again and blocked with BSA (bovine serum albumen), followed by incubation with […]. After extensive washing, the fluorescence is measured in a microplate reader and fluorescence images were recorded on a fluorescence microscope with an attached […].
The stimulation of SIRT1 expression was calculated by: Stimulation of SIRT1expression[%] = ((RFU test substance−RFU background)/(RFU control−RFU background) × 100)−100 [formula] • RFU test substance = relative fluorescent units of the wells with test substance, stained completely • RFU control = relative fluorescent units of the wells without test substance, stained completely • RFU background = relative fluorescent units of the wells without test substance, stained only with secondary antibody.

The next experiment concerns the target T1, 20S proteasome (Homo sapiens, UniProt P28074).
T1 construct: NHDF (normal human dermal fibroblasts) cells are disseminated in a 96-well microtiter plate; endogenous in cells; host or cells: NHDF (normal human dermal fibroblasts)
Nature of the experiment: 20S Proteasome Assay (in vitro), chymotrypsin-like protease activity in NHDF cells. Particulars: 72 h. The experiment is classed as cell-based.

The test system of another experiment is Hyaluronic acid. Nature of the experiment: Hyaluronic Acid Assay (in vitro), competitive ELISA in NHDF cells. Particulars: 72 h. The experiment is classed as cell-based, human. The procedure: NHDF (normal human dermal fibroblasts) cells were disseminated in a 96-well microtiter plate in a concentration of 2 x 10^4 cells/well (DMEM, 10% FCS). After cultivation in fully enriched medium (DMEM, 10% FCS) for 48 h at 37°C and 5% CO2, the serum content was reduced to 0.1% to synchronize the cell cycle. Various concentrations of the test substances and TGF-beta1 as internal standard are added and incubated for a further 72 h. The maximum concentration of the test substances used corresponds to 0.2 times the value of the IC20 value of the cytotoxicity assay. Hyaluronic acid is quantified by a competitive ELISA (TECOmedical TE1017).
The percent bound for each standard and unknown substance is calculated using the following equation: HA_[ng/ml] = (Astandardortestsubstance −Ablank)/(Azerostandard −Ablank) [formula] The abbreviations have the following meanings: • A(standard or test substance): Absorption of the wells with standard or test substance • A(zero standard): Absorption of the wells without HA standard • A(blank): Absorption of the wells without antibody, without peroxidase conjugate A standard curve is generated by plotting the percent B/ B0 as a function of the log HA concentration. The HA amount in the unknown samples is calculated by interpolating from the percent B / B0 values to […]. InductionofHA[%] = ((HAtestsubstance −HAwithoutcells)/(HAcontrol −HAwithoutcells) × 100) [formula] The abbreviations have the following meanings: • HA test substance: Amount of HA of the wells with test substance and with cells • HA control: Amount of HA of the wells without test substance, but with cells • HA without cells Amount of HA of the wells without cells
A general note: An ELISA detects its analyte on a solid surface through an enzyme-linked reagent.

Experiment [2] concerns HHFSC (Human Hair Follicle Stem Cells). Nature of the experiment: Stem cell protection (in vitro): inhibition of UVB-induced apoptosis, caspase 3/7 chemiluminescence. The settings on record: light or radiation study, 25 mJ/cm^2 UVB, relative to control, read-out: Inhibition of UV induced apoptosis. The experiment is classed as cell-based. How it is done:
HHFSC (Human Hair Follicle Stem Cells) isolated from hair follicle bulge (Celprogen) were cultivated in culture ware pre-coated with Human Hair Follicle Stem Cell Extra-cellular Matrix (Celprogen). The cells were incubated 2 h prior to and 16 h after UVB irradiation with test compounds. Cells were irradiated with 25 mJ/cm^2 UVB in the presence of buffer solution. Apoptosis induction was evaluated by caspase 3/7 protein expression (Caspase-Glo 3/7, Promega) and quantified by chemiluminescence measurement.

Where two headings read alike, the source gives them in different places.

This is an account of results in EP2862852B1, “Urea derivatives for the protection of stem cells” (Symrise AG, priority 2013, dated 2015).

As for `O=c1cc(CO)occ1O` [Kojic acid, 5-hydroxy-2-hydroxymethyl-4-pyranone, reference compound], the IC50 (commonly the concentration at which inhibition is half-maximal) in experiment [1] (Mus musculus) amounted to 452 µM.

In the case of `CCCCCCNC(=O)NC1CCCCC1` [Compound 3, 1-cyclohexyl-3-hexyl-urea], in experiment [1] (Mus musculus), the IC50 is 18 µM.

Take `CC(C)(C)c1cc(O)ccc1O` [tert.-butylhydrochinon, tert.- butylhydrochinon, reference compound]: in the experiment on Heme oxygenase-1 (25 µM), the “HO-1 up-regulation relative to control” value was 24.2-fold.

With `OC[C@H]1O[C@@H](Oc2ccc(O)cc2)[C@H](O)[C@@H](O)[C@@H]1O` [beta-Arbutin, reference compound], in experiment [1], the IC50 is 67 µM.

The molecule `O=C(NC1CCCCC1)NC1CCCCC1` [Compound 1, 1,3-dicyclohexylurea] showed an SIRT1 protein induction in the experiment on SIRT1 of 34%. Further, at 20S proteasome (600 µM), the “20S proteasome stimulation relative to control” value was determined as 83%.

Take `C[C@@H]1CCCC[C@H]1NC(=O)NCC1CCCCC1` (relative stereo) [Compound 4, 1-(cyclohexylmethyl)-3-(trans-2-methylcyclohexyl) urea]: the IC50 in experiment [1] (Mus musculus) is 14.6 µM.

With “1,3-bis(2-methylcyclohexyl)urea [Compound 7]”, the “20S proteasome stimulation relative to control” value at 20S proteasome (600 µM) amounted to 85%.

`CCC(C)NC(=O)NC1CCCCC1` (stereo not drawn) [Compound 2, 1-cyclohexyl-3-sec-butyl-urea] had an SIRT1 protein induction in the experiment with SIRT1 of 57%. Also, in experiment [1] (Mus musculus), the IC50 stood at 290 µM. Moreover, the “20S proteasome stimulation relative to control” value at 20S proteasome (600 µM) turned out to be 105%.

`CCCCC(CC)CNC(=O)NC1CCCCC1` (stereo not drawn) [Compound 5, 1-cyclohexyl-3-(2-ethylhexyl)urea]: in the experiment with SIRT1, the SIRT1 protein induction was found to be 19%. Moreover, the “Hyaluronic acid stimulation relative to control” value in the experiment with Hyaluronic acid (0.1 µM) turned out to be 67%; with Hyaluronic acid (0.5 µM), 51%; with Hyaluronic acid (5 µM), 39%. The IC50 in experiment [1] (Mus musculus) was found to be 12.6 µM. In addition, in experiment [2] (0.02 mM), the inhibition (in general, the drop in the measured response relative to a control, in per cent) at 20 µM was found to be 20.4%. Moreover, the inhibition at 200 µM in experiment [2] (0.2 mM) was found to be 95.3%. Besides, the “HO-1 up-regulation relative to control” value with Heme oxygenase-1 (250 µM) was 10.2-fold. Further, the “20S proteasome stimulation relative to control” value on 20S proteasome (780 µM) is listed as 37%.

Consider `CC(C)CN(C)C(=O)NC1CCCCC1` [Compound 6, 3-cyclohexyl-(1-iso-butyl-1-methyl)-urea], for which the “20S proteasome stimulation relative to control” value on 20S proteasome (23.5 µM) was determined as 39%.
